Laboratory results taken from patent publication US8389524B2, “Tricyclic nitrogen containing compounds as antibacterial agents” (Glaxo Group Limited, priority 2007, dated 2013).
Structures can show the parent of a compound that is named as a salt. Where two headings read alike, the source gives them in different places.

Tested on: Mycobacterium tuberculosis H37Rv
Assay: Mycobacterium tuberculosis H37Rv Inhibition Assay (resazurin, MIC)
Format: cell-based
Conditions: ATCC 25618 / H37Rv, 144 h
[1] = read-out: MIC value, H37Rv strain (ATCC25618), Middlebrook 7H9+ADC, six days at 37° C., resazurin fluorescence after 48 hours
[2] = H37Rv strain (ATCC25618), Middlebrook 7H9+ADC, six days at 37° C., resazurin fluorescence after 48 hours, read-out: MIC value

SMILES | MIC [1] [µg/mL] | MIC [2] [µg/mL]
O=c1ccc2ncc(=O)n3c2n1CC3CN1CCC(NCc2cc3c(cn2)OCCS3)CC1 (racemic) [Example 20, 2-({4-[(2,3-Dihydro[1,4]oxathiino[2,3-c]pyridin-7-ylmethyl)amino]-1-piperidinyl}methyl)-1,2-dihydro-3H,8H-2a,5,8a-triazaacenaphthylene-3,8-dione hydrochloride] | < 2 | 
O=c1ccc2ccc(=O)n3c2n1CC3CN1CCC(NCc2cc3c(cn2)OCCS3)CC1 (racemic) [Example 63, 1-[(4-{[(2,3-Dihydro[1,4]oxathiino[2,3-c]pyridin-7-yl)methyl]amino}-1-piperidinyl)methyl]-1,2-dihydro-4H,9H-imidazo[1,2,3-ij]-1,8-naphthyridine-4,9-dione hydrochloride (2:1 mixture of R:S)] |  | < 2
O=c1ccc2ccc(=O)n3c2n1CC3CN1CCC(NCc2cc3c(cn2)OCS3)CC1 (centres unmarked) [Example 2, 1-({4-[([1,3]Oxathiolo[5,4-c]pyridin-6-ylmethyl)amino]-1-piperidinyl}methyl)-1,2-dihydro-4H,9H-imidazo[1,2,3-ij]-1,8-naphthyridine-4,9-dione hydrochloride] | < 2 | 
O=C1CSc2cc(Br)c(CNC3CCN(CC4Cn5c(=O)ccc6ccc(=O)n4c65)CC3)nc2N1 (centres unmarked) [Example 4, 1-({4-[(7-Bromo-3-oxo-3,4-Dihydro-2H-pyrido[3,2-b][1,4]thiazin-6-yl-methyl)amino-1-piperidinyl}methyl)1,2-dihydro-4H,9H-imidazo[1,2,3-ij]-1,8-naphthyridine-4,9-dione hydrochloride] |  | < 2
O=c1ccc2ccc(=O)n3c2n1C[C@H]3CN1CCC(NCc2cc3c(cn2)OCS3)CC1 [Example 5A, (1R)-1-({4-[([1,3]Oxathiolo[5,4-c]pyridin-6-ylmethyl)amino]-1-piperidinyl}methyl)-1,2-dihydro-4H,9H-imidazo[1,2,3-ij]-1,8-naphthyridine-4,9-dione hydrochloride] | < 2 | 
O=c1ccc2ccc(=O)n3c2n1C[C@H]3CN1CCC(NCc2cc3c(cn2)OCCS3)CC1 [Example 6A, (1R)-1-({4-[(2,3-Dihydro[1,4]oxathiino[2,3-c]pyridin-7-ylmethyl)amino]-1-piperidinyl}methyl)-1,2-dihydro-4H,9H-imidazo[1,2,3-ij]-1,8-naphthyridine-4,9-dione hydrochloride] | < 2 | 
O=c1ccc2ccc(=O)n3c2n1C[C@H]3CN1CCC(NCc2cc3c(cn2)CCCC3)CC1 [Example 7, (1R)-1-({4-[(5,6,7,8-Tetrahydro-3-isoquinolinylmethyl)amino]-1-piperidinyl}methyl)-1,2-dihydro-4H,9H-imidazo[1,2,3-ij]-1,8-naphthyridine-4,9-dione hydrochloride] | < 2 | 
O=c1ccc2ccc(=O)n3c2n1C[C@H]3CN1CCC(NCc2cc3c(cn2)CCC3)CC1 [Example 8, (1R)-1-({4-[(6,7-Dihydro-5H-cyclopenta[c]pyridin-3-ylmethyl)amino]-1-piperidinyl}methyl)-1,2-dihydro-4H,9H-imidazo[1,2,3-ij]-1,8-naphthyridine-4,9-dione hydrochloride] | < 2 | 
O=c1cnc2ccc(=O)n3c2n1C[C@H]3CN1CCC(NCc2cc3c(cn2)OCS3)CC1 [Example 13A, (1R)-1-({4-[([1,3]Oxathiolo[5,4-c]pyridin-6-ylmethyl)amino]-1-piperidinyl}methyl)-1,2-dihydro-3H,8H-2a,5,8a-triazaacenaphthylene-3,8-dione hydrochloride] | < 2 | 
O=c1cnc2ccc(=O)n3c2n1C[C@H]3CN1CCC(NCc2cc3c(cn2)OCCS3)CC1 [Example 14, (1R)-1-({4-[(2,3-Dihydro-[1,4]oxathiino[2,3-c]pyridin-7-ylmethyl)amino]-1-piperidinyl}methyl)-1,2-dihydro-3H,8H-2a,5,8a-triazaacenaphthylene-3,8-dione hydrochloride] | < 2 | 
O=c1ccc2ncc(=O)n3c2n1C[C@H]3CN1CCC(NCc2cc3c(cn2)OCS3)CC1 [Example 16A, (2R)-2-({4-[([1,3]Oxathiolo[5,4-c]pyridin-6-ylmethyl)amino]-1-piperidinyl}methyl)-1,2-dihydro-3H,8H-2a,5,8a-triazaacenaphthylene-3,8-dione hydrochloride] | < 2 | 
O=c1ccc2ncc(=O)n3c2n1C[C@H]3CN1CCC(NCc2cc3c(cn2)OCCS3)CC1 [Example 19A, (2R)-2-({4-[(2,3-Dihydro[1,4]oxathiino[2,3-c]pyridin-7-ylmethyl)amino]-1-piperidinyl}methyl)-1,2-dihydro-3H,8H-2a,5,8a-triazaacenaphthylene-3,8-dione hydrochloride] | < 2 | 
CC1(NCc2cc3c(cn2)OCCS3)CCN(C[C@@H]2Cn3c(=O)ccc4ccc(=O)n2c43)CC1 [Example 23, (1R)-1-({4-[(2,3-Dihydro[1,4]oxathiino[2,3-c]pyridin-7-ylmethyl)amino]-4-methyl-1-piperidinyl}methyl)-1,2-dihydro-4H,9H-imidazo[1,2,3-ij]-1,8-naphthyridine-4,9-dione hydrochloride] |  | < 2
CC1(NCc2cc3c(cn2)OCS3)CCN(C[C@@H]2Cn3c(=O)ccc4ccc(=O)n2c43)CC1 [Example 24, (1R)-1-({4-Methyl-4-[([1,3]oxathiolo[5,4-c]pyridin-6-ylmethyl)amino]-1-piperidinyl}methyl)-1,2-dihydro-4H,9H-imidazo[1,2,3-ij]-1,8-naphthyridine-4,9-dione hydrochloride] |  | < 2
O=c1ccc2ncc(=O)n3c2n1C[C@H]3CN1CCC(NCc2ccc3nsnc3c2)CC1 [Example 25, (2R)-2-({4-[(2,1,3-Benzothiadiazol-5-ylmethyl)amino]-1-piperidinyl}methyl)-1,2-dihydro-3H,8H-2a,5,8a-triazaacenaphthylene-3,8-dione hydrochloride] | ≤ 1 | 
O=c1ccc2ncc(=O)n3c2n1C[C@H]3CN1CCC(NCc2cc3c(cc2F)OCCO3)CC1 [Example 26, (2R)-2-[(4-{[(7-Fluoro-2,3-dihydro-1,4-benzodioxin-6-yl)methyl]amino}-1-piperidinyl)methyl]-1,2-dihydro-3H,8H-2a,5,8a-triazaacenaphthylene-3,8-dione hydrochloride] | ≤ 1 | 
O=c1ccc2ncc(=O)n3c2n1C[C@H]3CN1CCC(NCc2cc3c(cn2)SCO3)CC1 [Example 28, (2R)-2-({4-[([1,3]Oxathiolo[4,5-c]pyridin-6-ylmethyl)amino]-1-piperidinyl}methyl)-1,2-dihydro-3H,8H-2a,5,8a-triazaacenaphthylene-3,8-dione hydrochloride] |  | < 2
O=C1CSc2ccc(CNC3CCN(C[C@@H]4Cn5c(=O)ccc6ncc(=O)n4c65)CC3)nc2N1 [Example 29, (2R)-2-[(4-{[(3-Oxo-3,4-dihydro-2H-pyrido[3,2-b][1,4]thiazin-6-yl)methyl]amino}-1-piperidinyl)methyl]-1,2-dihydro-3H,8H-2a,5,8a-triazaacenaphthylene-3,8-dione hydrochloride] |  | < 2
O=c1ccc2ccc(=O)n3c2n1C[C@H]3CN1CCC(NCc2ccc3c(c2)OCCO3)CC1 [Example 30, (1R)-1-({4-[(2,3-Dihydro-1,4-benzodioxin-6-ylmethyl)amino]-1-piperidinyl}methyl)-1,2-dihydro-4H,9H-imidazo[1,2,3-ij]-1,8-naphthyridine-4,9-dione hydrochloride] |  | < 2
O=c1ccc2ccc(=O)n3c2n1C[C@H]3CN1CCC(NCc2cc(F)c3c(c2)OCCO3)CC1 [Example 31, (1R)-1-[(4-{[(8-Fluoro-2,3-dihydro-1,4-benzodioxin-6-yl)methyl]amino}-1-piperidinyl)methyl]-1,2-dihydro-4H,9H-imidazo[1,2,3-ij]-1,8-naphthyridine-4,9-dione hydrochloride] |  | < 2
O=C1COc2cc(Cl)c(CNC3CCN(C[C@@H]4Cn5c(=O)ccc6ccc(=O)n4c65)CC3)nc2N1 [Example 32, (1R)-1-[(4-{[(7-Chloro-3-oxo-3,4-dihydro-2H-pyrido[3,2-b][1,4]oxazin-6-yl)methyl]amino}-1-piperidinyl)methyl]-1,2-dihydro-4H,9H-imidazo[1,2,3-ij]-1,8-naphthyridine-4,9-dione dihydrochloride] |  | < 2
O=C1CSc2cnc(CNC3CCN(C[C@@H]4Cn5c(=O)ccc6ccc(=O)n4c65)CC3)nc2N1 [Example 34, (1R)-1-[(4-{[(7-Oxo-6,7-dihydro-1H-pyrimido[5,4-b][1,4]thiazin-2-yl)methyl]amino}-1-piperidinyl)methyl]-1,2-dihydro-4H,9H-imidazo[1,2,3-ij]-1,8-naphthyridine-4,9-dione dihydrochloride] | < 2 | 
O=c1cnc2ccc(=O)n3c2n1C[C@H]3CN1CCC(NCc2cc3c(cn2)OCCC3)CC1 [Example 37, (1R)-1-({4-[(3,4-Dihydro-2H-pyrano[2,3-c]pyridin-6-ylmethyl)amino]-1-piperidinyl}methyl)-1,2-dihydro-3H,8H-2a,5,8a-triazaacenaphthylene-3,8-dione hydrochloride] | < 2 | 
O=c1ccc2ncc(=O)n3c2n1C[C@H]3CN1CCC(NCc2ccc3c(c2)OCCO3)CC1 [Example 40, (2R)-2-({4-[(2,3-Dihydro-1,4-benzodioxin-6-ylmethyl)amino]-1-piperidinyl}methyl)-1,2-dihydro-3H,8H-2a,5,8a-triazaacenaphthylene-3,8-dione hydrochloride] | < 2 | 
N#Cc1cc(CNC2CCN(C[C@@H]3Cn4c(=O)ccc5ncc(=O)n3c54)CC2)cc2c1OCCO2 [Example 42, 7-{[(1-{[(2R)-3,8-Dioxo-1,2-dihydro-3H,8H-2a,5,8a-triazaacenaphthylen-2-yl]methyl}-4-piperidinyl)amino]methyl}-2,3-dihydro-1,4-benzodioxin-5-carbonitrile hydrochloride] | < 2 | 
O=c1cnc2ccc(=O)n3c2n1C[C@H]3CN1CCC(NCc2ccc3c(c2)OCCO3)CC1 [Example 44, (1R)-1-({4-[(2,3-Dihydro-1,4-benzodioxin-6-ylmethyl)amino]-1-piperidinyl}methyl)-1,2-dihydro-3H,8H-2a,5,8a-triazaacenaphthylene-3,8-dione hydrochloride] | < 2 | 
